Assay results as given in the NIST ThermoML archive (doi:10.1016/j.fluid.2019.05.015).

How the values were obtained:
[1] = refractive index (Na D-line) (dimensionless); xn = mol fraction of the nth substance listed; settings: 100 kPa, Liquid, Standard Abbe refractometry
[2] = mean ionic activity coefficient (dimensionless); mn = molality of the nth substance listed, in mol/kg; settings: 100 kPa, Liquid, Electrochemical cell potential

CCn1cc[n+](C)c1.[Br-] [1-ethyl-3-methylimidazolium bromide] + O
Settings	mean ionic activity coefficient	refractive index
[1], 298.2 K, x2 = 0.0971	–	1.549
[1], 298.2 K, x2 = 0.188	–	1.545
[1], 298.2 K, x2 = 0.2981	–	1.536
[1], 298.2 K, x2 = 0.3857	–	1.5335
[1], 298.2 K, x2 = 0.471	–	1.525
[1], 298.2 K, x2 = 0.5966	–	1.5115
[1], 298.2 K, x2 = 0.6884	–	1.4985
[1], 298.2 K, x2 = 0.7863	–	1.4625
[1], 298.2 K, x2 = 0.8884	–	1.4305
[1], 308.2 K, x2 = 0.0926	–	1.5455
[1], 308.2 K, x2 = 0.1801	–	1.5425
[1], 308.2 K, x2 = 0.2947	–	1.534
[1], 308.2 K, x2 = 0.3829	–	1.53
[1], 308.2 K, x2 = 0.4714	–	1.5235
[1], 308.2 K, x2 = 0.5983	–	1.509
[1], 308.2 K, x2 = 0.6871	–	1.4955
[1], 308.2 K, x2 = 0.7851	–	1.4595
[1], 308.2 K, x2 = 0.888	–	1.427
[1], 318.2 K, x2 = 0.0923	–	1.5425
[1], 318.2 K, x2 = 0.1796	–	1.54
[1], 318.2 K, x2 = 0.2939	–	1.531
[1], 318.2 K, x2 = 0.382	–	1.5265
[1], 318.2 K, x2 = 0.4704	–	1.521
[1], 318.2 K, x2 = 0.5974	–	1.5065
[1], 318.2 K, x2 = 0.6862	–	1.4925
[1], 318.2 K, x2 = 0.7844	–	1.458
[1], 318.2 K, x2 = 0.8876	–	1.425
[2], 298.2 K, m1 = 0.021	0.8957	–
[2], 298.2 K, m1 = 0.0419	0.748	–
[2], 298.2 K, m1 = 0.0585	0.7149	–
[2], 298.2 K, m1 = 0.0791	0.6998	–
[2], 298.2 K, m1 = 0.0995	0.6908	–
[2], 298.2 K, m1 = 0.2548	0.5703	–
[2], 298.2 K, m1 = 0.4968	0.4953	–
[2], 298.2 K, m1 = 0.7334	0.45	–
[2], 298.2 K, m1 = 1.003	0.397	–
[2], 298.2 K, m1 = 1.244	0.378	–
[2], 298.2 K, m1 = 1.489	0.361	–
[2], 308.2 K, m1 = 0.0211	0.8798	–
[2], 308.2 K, m1 = 0.042	0.8527	–
[2], 308.2 K, m1 = 0.0586	0.8229	–
[2], 308.2 K, m1 = 0.0793	0.769	–
[2], 308.2 K, m1 = 0.0999	0.7385	–
[2], 308.2 K, m1 = 0.2555	0.6299	–
[2], 308.2 K, m1 = 0.4948	0.5249	–
[2], 308.2 K, m1 = 0.7324	0.4686	–
[2], 308.2 K, m1 = 1.003	0.42	–
[2], 308.2 K, m1 = 1.245	0.39	–
[2], 308.2 K, m1 = 1.489	0.375	–
[2], 308.2 K, m1 = 1.744	0.363	–
[2], 308.2 K, m1 = 1.995	0.346	–
[2], 308.2 K, m1 = 2.251	0.322	–
[2], 308.2 K, m1 = 2.499	0.307	–
[2], 318.2 K, m1 = 0.0093	0.8999	–
[2], 318.2 K, m1 = 0.0187	0.8927	–
[2], 318.2 K, m1 = 0.0418	0.8287	–
[2], 318.2 K, m1 = 0.0603	0.7921	–
[2], 318.2 K, m1 = 0.0786	0.7691	–
[2], 318.2 K, m1 = 0.1014	0.7508	–
[2], 318.2 K, m1 = 0.2568	0.6434	–
[2], 318.2 K, m1 = 0.4956	0.5317	–
[2], 318.2 K, m1 = 0.7332	0.4709	–
[2], 318.2 K, m1 = 1.003	0.423	–
[2], 318.2 K, m1 = 1.244	0.399	–
[2], 318.2 K, m1 = 1.487	0.385	–
[2], 318.2 K, m1 = 1.743	0.366	–
[2], 318.2 K, m1 = 1.995	0.344	–
[2], 318.2 K, m1 = 2.251	0.33	–
[2], 318.2 K, m1 = 2.5	0.32	–
